Values of other authors in patent US20070224637A1, “Oxidative protection of lipid layer biosensors” (priority 2006, published 2007).

| Compound | Solubility In alcohol | Solubility In oil | Solubility In water |
| --- | --- | --- | --- |
| D-tocopherol [D-tocopherol (syn)] | Yes | Yes | No |
| Cc1c(O)cc2c(c1C)O[C@](C)(CCC[C@H](C)CCC[C@H](C)CCCC(C)C)CC2 [γ-tocopherol (syn), γ-tocopherol] | Yes | Yes | No |
| O[C@H](CS)[C@H](O)CS (racemic) [Dithiothreitol] | Yes | No | Yes |
| CCOc1ccc2c(c1)C(C)=CC(C)(C)N2 [Ethoxyquin] |  | Yes |  |
| CCOC(=O)c1cc(O)c(O)c(O)c1 [Ethyl gallate] | Yes | No | Slightly |
| CC(=O)N[C@@H](CS)C(=O)O [Acetylcysteine] | Yes | No | Yes |
| Cc1cc2c(C(C)C)c(O)c(O)c(C=O)c2c(O)c1-c1c(C)cc2c(C(C)C)c(O)c(O)c(C=O)c2c1O [Gossypol] | Yes | Yes | No |
| CCCCCCCCOC(=O)c1cc(O)c(O)c(O)c1 [Octyl gallate] | Yes | Yes | No |
| Tocopherols |  | Yes |  |
| CCCOC(=O)c1cc(O)c(O)c(O)c1 [Propyl gallate] | Yes | Slightly | Slightly |
| O=S([O-])[O-].[Na+].[Na+] [Sodium sulfite] | No |  | Yes |
| O=S([O-])O.O=S([O-])O.[Ca+2] [Calcium bisulfite] |  |  | Yes |
| O=S([O-])O.[Na+] [Sodium bisulfite] |  | No | Yes |
| O=S([O-])S(=O)(=O)[O-].[K+].[K+] [Potassium metabisulfite] | No | No | Yes |
| NC(N)=S [Thiourea] | Yes | No | Yes |
| N[C@@H](CCC(=O)N[C@@H](CS)C(=O)NCC(=O)O)C(=O)O [Glutathione] |  |  | Yes |
| O=C(O)c1cc(O)c(O)c(O)c1 [Gallic acid] | Yes | Yes | Yes |

| Compound | Solubility In alcohol | Solubility In oil | Solubility In water |
| --- | --- | --- | --- |
| CCCCCCCCCCCCCCCC(=O)OC[C@H](O)[C@H]1OC(=O)C(O)=C1O [Ascorbyl palmitate] | Yes | Yes | Yes |
| OC[C@@H](O)[C@@H](O)[C@H](O)[C@@H](O)CS [Thiosorbitol] | Yes | Yes | Yes |
| N[C@@H](CS)C(=O)O [Cysteine] | Yes | No | Yes |
| COc1ccc(O)c(C(C)(C)C)c1 [Butylated hydroxyanisole] | Yes | Yes | No |
| O=S=O [Sulfur dioxide] | Yes | Yes | Yes |
| CCCCCCCCCCCCOC(=O)c1cc(O)c(O)c(O)c1 [Dodecyl gallate] | Yes | Yes | No |
| O=C(OC[C@H]1O[C@@H](OC(=O)c2cc(O)c(O)c(OC(=O)c3cc(O)c(O)c(O)c3)c2)[C@H](OC(=O)c2cc(O)c(O)c(OC(=O)c3cc(O)c(O)c(O)c3)c2)[C@@H](OC(=O)c2cc(O)c(O)c(OC(=O)c3cc(O)c(O)c(O)c3)c2)[C@@H]1OC(=O)c1cc(O)c(O)c(OC(=O)c2cc(O)c(O)c(O)c2)c1)c1cc(O)c(O)c(OC(=O)c2cc(O)c(O)c(O)c2)c1 [Tannic acid] |  |  | Yes |
| Oc1ccc(O)cc1 [Hydroquinone] | Yes | Yes | Yes |
| O=S([O-])S(=O)(=O)[O-].[Na+].[Na+] [Sodium metabisulfite] | Slightly |  | Yes |
| O=S([O-])[O-].[Ca+2] [Calcium sulfite] | Yes |  | Yes |
| CC(C)(C)c1cc(CO)cc(C(C)(C)C)c1O [4-Hydroxymethyl-2,6-di-tert-butylphenol] | Yes | Yes | Yes |
| CC(Cc1ccc(O)c(O)c1)C(C)Cc1ccc(O)c(O)c1 (stereo not shown) [Nordihydroguaiaretic acid] | Yes | Yes | No |
| Cc1c(C)c2c(c(C)c1O)CC[C@@](C)(CCC[C@H](C)CCC[C@H](C)CCCC(C)C)O2 [d-α-tocopherol (syn), d-α-tocopherol] | Yes | Yes | No |
| O=[PH2]O [Hypophosphorus acid] |  |  | Yes |
| Cc1cc(C(C)(C)C)c(O)c(C(C)(C)C)c1 [Butylated hydroxytoluene] | Yes | Yes | No |
| OCC(O)CS (stereo not shown) [Monothioglycerol] | Yes |  | Yes |
